For assay [1], the system named is HepG2. Description: Antiproliferative activity against human HepG2 cells after 48 hrs by MTT assay. In kind it is functional, cell-based. The settings on record: HepG2, 48 h.
The subject of assay [2] is MCF7. The assay can be described thus: Antiproliferative activity against human MCF7 cells after 48 hrs by MTT assay. It is filed as functional, cell-based. The conditions noted are these: MCF7, 48 h.
Assay [3] concerns MCF7. The assay can be described thus: Potency index, ratio of sunitinib IC50 to compound IC50 for human MCF7 cells. In kind it is functional.
The subject of assay [4] is HepG2. The assay can be described thus: Induction of apoptosis in human HepG2 cells assessed as necrotic cells at 0.5 uM after 48 hrs by Annexin-V FITC/propidium iodide staining based flow cytometry (reference value: 1.36%). In kind it is functional.
Assay [5] deals with HepG2. Description: Induction of apoptosis in human HepG2 cells assessed as late apoptotic cells at 0.5 uM after 48 hrs by Annexin-V FITC/propidium iodide staining based flow cytometry (reference value: 5.53%). In kind it is functional.
Assay [6] concerns HepG2. Description: Induction of apoptosis in human HepG2 cells assessed as early apoptotic cells at 0.5 uM after 48 hrs by Annexin-V FITC/propidium iodide staining based flow cytometry (reference value: 6.62%). It is filed as functional.
For assay [7], the system named is HepG2. The assay can be described thus: Induction of apoptosis in human HepG2 cells assessed as live cells at 0.5 uM after 48 hrs by Annexin-V FITC/propidium iodide staining based flow cytometry (reference value: 86.49%). In kind it is functional.
The subject of assay [8] is HepG2. The assay can be described thus: Potency index, ratio of sunitinib IC50 to compound IC50 for human HepG2 cells. It is filed as functional.

Turning to `COc1ccc2cc1Oc1ccc(cc1)C[C@H]1c3cc(c(OC)cc3CCN1C)Oc1c(OC(=O)c3cccc([N+](=O)[O-])c3)c(OC)cc3c1[C@H](C2)N(C)CC3`, the IC50 came to 1.69 µM in the assay with HepG2 [1] and 1.99 µM with MCF7 [2].
As for `COc1ccc2cc1Oc1ccc(cc1)C[C@H]1c3cc(c(OC)cc3CCN1C)Oc1c(OC(=O)c3ccccc3OC(C)=O)c(OC)cc3c1[C@H](C2)N(C)CC3`, the figures for the IC50 with HepG2 [1] and with MCF7 [2] were 1.78 µM and 5.12 µM, respectively.
The like results for `COc1ccc2cc1Oc1ccc(cc1)C[C@H]1c3cc(c(OC)cc3CC[N+]1(C)CCO)Oc1c(OC)c(OC)cc3c1[C@H](C2)[N+](C)(CCO)CC3` (stereo not given in full) were, in that order, 9.67 µM and 9.32 µM.
As to `CCOC(=O)C(CC)[N+]1(C)CCc2cc(OC)c3cc2[C@@H]1Cc1ccc(cc1)Oc1cc(ccc1OC)C[C@H]1c2c(cc(OC)c(OC)c2O3)CCN1C` (stereo not given in full), the IC50 worked out at 15.7 µM with HepG2 [1] and 16.6 µM with MCF7 [2].
The corresponding values for `C/C=C/C=C/C(=O)Oc1c(OC)cc2c3c1Oc1cc4c(cc1OC)CCN(C)[C@H]4Cc1ccc(cc1)Oc1cc(ccc1OC)C[C@@H]3N(C)CC2` are 4 µM and 6.56 µM.
Take `CCOC(=O)C(C)[N+]1(C)CCc2cc(OC)c3cc2[C@@H]1Cc1ccc(cc1)Oc1cc(ccc1OC)C[C@H]1c2c(cc(OC)c(OC)c2O3)CCN1C` (stereo not given in full): the 50% inhibitory concentration (IC50) in the assay with HepG2 [1] turned out to be 13.1 µM; with MCF7 [2] it was 10.1 µM.
Turning to `CCOc1ccc(C(=O)Oc2c(OC)cc3c4c2Oc2cc5c(cc2OC)CCN(C)[C@H]5Cc2ccc(cc2)Oc2cc(ccc2OC)C[C@@H]4N(C)CC3)cc1`, the IC50 in the assay on HepG2 [1] was 0.65 µM; with MCF7 [2], 4.54 µM.
The corresponding values for `COc1ccc2cc1Oc1ccc(cc1)C[C@H]1c3cc(c(OC)cc3CC[N+]1(C)CC(=O)[O-])Oc1c(OC)c(OC)cc3c1[C@H](C2)N(C)CC3` (stereo not given in full) are 9.98 µM and 11.6 µM.
As for `COc1ccc2cc1Oc1ccc(cc1)C[C@H]1c3cc(c(OC)cc3CCN1C)Oc1c(OC(=O)CCl)c(OC)cc3c1[C@H](C2)N(C)CC3`, the IC50 in the assay on HepG2 [1] was determined as 4.12 µM; with MCF7 [2], 7.13 µM.
The like results for `COc1ccc2cc1Oc1ccc(cc1)C[C@H]1c3cc(c(OC)cc3CCN1C)Oc1c(OC(C)C)c(OC)cc3c1[C@H](C2)N(C)CC3` were, in that order, 4.92 µM and 7.98 µM.
On to `COc1ccc2cc1Oc1ccc(cc1)C[C@H]1c3cc(c(OC)cc3CCN1C)Oc1c(OCc3ccccc3)c(OC)cc3c1[C@H](C2)N(C)CC3`, for which the “Ratio IC50” value is reported as 7.37 in the assay on MCF7 [3] and 29.2 in the assay on HepG2 [8]. Besides, the IC50 came to 0.55 µM in the assay on HepG2 [1] and 3.45 µM with MCF7 [2]. Also, the Activity in the assay on HepG2 [4] was 5.77%; with HepG2 [5], 28.16%; with HepG2 [6], 10.47%; with HepG2 [7], 55.6%.
Turning to `CCCCOc1c(OC)cc2c3c1Oc1cc4c(cc1OC)CCN(C)[C@H]4Cc1ccc(cc1)Oc1cc(ccc1OC)C[C@@H]3N(C)CC2`, the IC50 came out at 3.79 µM in the assay on HepG2 [1] and 7.34 µM in the assay on MCF7 [2].
The corresponding values for `COc1ccc2cc1Oc1ccc(cc1)C[C@H]1c3cc(c(OC)cc3CC[N+]1(C)CC(=O)[O-])Oc1c(OC)c(OC)cc3c1[C@H](C2)[N+](C)(CC(=O)[O-])CC3` (stereo not given in full) are 10 µM and 14.6 µM.
For `COc1ccc2cc1Oc1ccc(cc1)C[C@H]1c3cc(c(OC)cc3CCN1C)Oc1c(OC(=O)c3ccccc3Cl)c(OC)cc3c1[C@H](C2)N(C)CC3`, the IC50 came to 1.32 µM in the assay on HepG2 [1] and 3.51 µM in the assay with MCF7 [2].
The corresponding values for `COc1ccc2cc1Oc1ccc(cc1)C[C@H]1c3cc(c(OC)cc3CCN1C)Oc1c(OC(=O)/C=C/c3ccccc3)c(OC)cc3c1[C@H](C2)N(C)CC3` are 3.59 µM and 6.12 µM.
`COc1ccc2cc1Oc1ccc(cc1)C[C@H]1c3cc(c(OC)cc3CCN1C)Oc1c(OC(C)=O)c(OC)cc3c1[C@H](C2)N(C)CC3`: the IC50 came to 5.24 µM in the assay on HepG2 [1] and 6.99 µM with MCF7 [2].
As to `COc1ccc2cc1Oc1ccc(cc1)C[C@H]1c3cc(c(OC)cc3CCN1C)Oc1c(OC(=O)c3cccnc3Cl)c(OC)cc3c1[C@H](C2)N(C)CC3`, the IC50 in the assay on HepG2 [1] is 2.79 µM; in the assay with MCF7 [2], 4.01 µM.
The corresponding values for `COc1ccc2cc1Oc1ccc(cc1)C[C@H]1c3cc(c(OC)cc3CCN1C)Oc1c(OC(=O)c3ccc(Cl)cc3)c(OC)cc3c1[C@H](C2)N(C)CC3` are 2.12 µM and 3.79 µM.
The like results for `COc1ccc2cc1Oc1ccc(cc1)C[C@H]1c3cc(c(OC)cc3CCN1C)Oc1c(OC(=O)c3cccc(Cl)c3)c(OC)cc3c1[C@H](C2)N(C)CC3` were, in that order, 1.99 µM and 2.98 µM.
`CCOc1c(OC)cc2c3c1Oc1cc4c(cc1OC)CCN(C)[C@H]4Cc1ccc(cc1)Oc1cc(ccc1OC)C[C@@H]3N(C)CC2`: the IC50 worked out at 5.52 µM with HepG2 [1] and 8.55 µM with MCF7 [2].
The corresponding values for `CCC(Br)C(=O)Oc1c(OC)cc2c3c1Oc1cc4c(cc1OC)CCN(C)[C@H]4Cc1ccc(cc1)Oc1cc(ccc1OC)C[C@@H]3N(C)CC2` (stereo not given in full) are 3.88 µM and 7.02 µM.
The corresponding values for `COc1ccc2cc1Oc1ccc(cc1)C[C@H]1c3cc(c(OC)cc3CCN1C)Oc1c(OC(=O)c3ccc([N+](=O)[O-])cc3)c(OC)cc3c1[C@H](C2)N(C)CC3` are 2.11 µM and 2.99 µM.
The corresponding values for `COc1ccc2cc1Oc1ccc(cc1)C[C@H]1c3cc(c(OC)cc3CCN1C)Oc1c(OC(=O)c3ccccc3)c(OC)cc3c1[C@H](C2)N(C)CC3` are 3.69 µM and 6.34 µM.
Take `COc1ccc2cc1Oc1ccc(cc1)C[C@H]1c3cc(c(OC)cc3CCN1C)Oc1c(O)c(OC)cc3c1[C@H](C2)N(C)CC3` [FANGCHINOLINE]: the IC50 in the assay with HepG2 [1] was 9.08 µM; in the assay on MCF7 [2], 10.1 µM.
Regarding `COc1ccc2cc1Oc1ccc(cc1)C[C@H]1c3cc(c(OC)cc3CCN1C)Oc1c(OC(=O)c3ccccc3[N+](=O)[O-])c(OC)cc3c1[C@H](C2)N(C)CC3`, the figures for the IC50 in the assay with HepG2 [1] and in the assay with MCF7 [2] were 2.95 µM and 2.57 µM, respectively.
`COc1ccc2cc1Oc1ccc(cc1)C[C@H]1c3cc(c(OC)cc3CCN1C)Oc1c(OC)c(OC)cc3c1[C@H](C2)N(C)CC3` [FANCHININ]: the 50% inhibitory concentration (IC50) with HepG2 [1] amounted to 6.82 µM; with MCF7 [2] it was 8.62 µM.
For the compound `COc1ccc2cc1Oc1ccc(cc1)C[C@H]1c3cc(c(OC)cc3CCN1C)Oc1c(OC(=O)c3cccnc3)c(OC)cc3c1[C@H](C2)N(C)CC3`, the IC50 was 1.98 µM with HepG2 [1] and 4.17 µM in the assay with MCF7 [2].
